Reference: PubChem BioAssay (NCI)
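How tested: cells in 96-well plates exposed to compound for 48 hours at five concentrations. GI50 = concentration required for 50% inhibition of growth. TGI marks complete inhibition of growth.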

How the values were obtained:
Assay in all cases: NCI anticancer screen, dose series, 48 h
[1] = test system: 786-0 renal
[2] = test system: A549 NSCLC
[3] = test system: ACHN renal
[4] = test system: BT-549 breast
[5] = test system: CAKI-1 renal
[6] = test system: CCRF-CEM leukemia
[7] = test system: COLO 205 colon
[8] = test system: DU-145 prostate
[9] = test system: EKVX NSCLC
[10] = test system: HCC-2998 colon
[11] = test system: HCT-15 colon
[12] = test system: HOP-62 NSCLC
[13] = test system: HOP-92 NSCLC
[14] = test system: HT29 colon
[15] = test system: IGROV1 ovarian
[16] = test system: K-562 leukemia
[17] = test system: KM12 colon
[18] = test system: LOX IMVI melanoma
[19] = test system: M14 melanoma
[20] = test system: MALME-3M melanoma
[21] = test system: MCF7 breast
[22] = test system: MDA-MB-231 breast
[23] = test system: MDA-MB-435
[24] = test system: MOLT-4 leukemia
[25] = test system: NCI-H226 lung
[26] = test system: NCI-H23 lung
[27] = test system: NCI-H460 lung
[28] = test system: NCI-H522 lung
[29] = test system: NCI/ADR-RES ovarian
[30] = test system: OVCAR-3 ovarian
[31] = test system: OVCAR-4 ovarian
[32] = test system: OVCAR-5 ovarian
[33] = test system: OVCAR-8 ovarian
[34] = test system: PC-3 prostate
[35] = test system: RPMI-8226 leukemia
[36] = test system: RXF 393 renal
[37] = test system: SF-268 CNS
[38] = test system: SF-295 CNS
[39] = test system: SF-539 CNS
[40] = test system: SK-MEL-2 melanoma
[41] = test system: SK-MEL-28 melanoma
[42] = test system: SK-MEL-5 melanoma
[43] = test system: SK-OV-3 ovarian
[44] = test system: SN12C renal
[45] = test system: SNB-19 CNS
[46] = test system: SNB-75 CNS
[47] = test system: SR leukemia
[48] = test system: SW-620 colon
[49] = test system: T-47D breast
[50] = test system: TK-10 renal
[51] = test system: U251 CNS
[52] = test system: UACC-257 melanoma
[53] = test system: UACC-62 melanoma
[54] = test system: UO-31 renal

**Q.** Which results are given for `C(=Nc1nc(SCc2ccccc2)nc2[nH]ncc12)c1cccs1`?
**A.** GI50 [1]: 79.7 µM; TGI [1]: > 100 µM; GI50 [2]: 60 µM; TGI [2]: > 100 µM; GI50 [3]: 43.6 µM; TGI [3]: > 100 µM; GI50 [4]: 41 µM; TGI [4]: > 100 µM; GI50 [5]: 29.8 µM; TGI [5]: > 100 µM; GI50 [6]: 37.2 µM; TGI [6]: > 100 µM; GI50 [7]: 22.2 µM; TGI [7]: 76.4 µM; GI50 [8]: 43 µM; TGI [8]: > 100 µM; GI50 [9]: 34.5 µM; TGI [9]: > 100 µM; GI50 [10]: 37.7 µM; TGI [10]: > 100 µM; GI50 [11]: 85.4 µM; TGI [11]: > 100 µM; GI50 [12]: > 100 µM; TGI [12]: > 100 µM; GI50 [13]: 10.7 µM; TGI [13]: 50 µM; GI50 [14]: 38.2 µM; TGI [14]: > 100 µM; GI50 [15]: > 100 µM; TGI [15]: > 100 µM; GI50 [16]: 35 µM; TGI [16]: > 100 µM; GI50 [17]: 36.7 µM; TGI [17]: > 100 µM; GI50 [18]: 48.6 µM; TGI [18]: > 100 µM; GI50 [19]: 34.7 µM; TGI [19]: > 100 µM; GI50 [20]: 42.9 µM; TGI [20]: > 100 µM; GI50 [21]: 40.4 µM; TGI [21]: > 100 µM; GI50 [22]: 37.3 µM; TGI [22]: > 100 µM; GI50 [23]: 41.6 µM; TGI [23]: > 100 µM; GI50 [24]: 23.6 µM; TGI [24]: 85.9 µM; GI50 [25]: 45.7 µM; TGI [25]: > 100 µM; GI50 [26]: 66.4 µM; TGI [26]: > 100 µM; GI50 [27]: 33.2 µM; TGI [27]: > 100 µM; GI50 [28]: 59.2 µM; TGI [28]: > 100 µM; GI50 [29]: 49.6 µM; TGI [29]: > 100 µM; GI50 [30]: > 100 µM; TGI [30]: > 100 µM; GI50 [31]: > 100 µM; TGI [31]: > 100 µM; GI50 [32]: > 100 µM; TGI [32]: > 100 µM; GI50 [33]: 39.6 µM; TGI [33]: > 100 µM; GI50 [34]: 32.6 µM; TGI [34]: > 100 µM; GI50 [35]: 27.6 µM; TGI [35]: > 100 µM; GI50 [36]: 47.1 µM; TGI [36]: > 100 µM; GI50 [37]: 30.4 µM; TGI [37]: > 100 µM; GI50 [38]: > 100 µM; TGI [38]: > 100 µM; GI50 [39]: 24.8 µM; TGI [39]: > 100 µM; GI50 [40]: 77.4 µM; TGI [40]: > 100 µM; GI50 [41]: 31.3 µM; TGI [41]: > 100 µM; GI50 [42]: 2.77 µM; TGI [42]: 19.8 µM; GI50 [43]: > 100 µM; TGI [43]: > 100 µM; GI50 [44]: > 100 µM; TGI [44]: > 100 µM; GI50 [45]: 26.4 µM; TGI [45]: > 100 µM; GI50 [46]: > 100 µM; TGI [46]: > 100 µM; GI50 [47]: 18.7 µM; TGI [47]: 65.3 µM; GI50 [48]: 47.2 µM; TGI [48]: > 100 µM; GI50 [49]: 21.9 µM; TGI [49]: 52.8 µM; GI50 [50]: 44.3 µM; TGI [50]: > 100 µM; GI50 [51]: 43.6 µM; TGI [51]: > 100 µM; GI50 [52]: 53.7 µM; TGI [52]: > 100 µM; GI50 [53]: 25.4 µM; TGI [53]: 61.8 µM; GI50 [54]: 73.8 µM; TGI [54]: > 100 µM
